The record followed here is patent US11629147B2, “Triazolo-pyrimidine compounds and uses thereof” (Dizal (Jiangsu) Pharmaceutical Co., Ltd., priority 2019, dated 2023).

One assay concerns the target mA2a (Mus musculus (Mouse), UniProt Q60613). Put plainly: cAMP inhibition assay in mA2a/CHO cells. The format is cell-based. The note with it: 10 μM adenosine, read-out: cAMP & FLIPR IC50 (nM) mA2a. As to the method: (§1) hA2a/CHO, hA2b/CHO and mA2a/CHO(Genscript) were plated at 5×10^3 cells/well into 384-well polystyrene plates at the day of experiment. Compounds were pre-incubated with cells for 30 min at 37° C., 5% CO2. Then 10 μM adenosine was added to the cells and incubated for 30 min at 37° C., 5% CO2. Detection reagent (CISBIO) was added and the plates were incubated for 60 min at room temperature. The signal was captured by Envision.

For the next assay, the target named is hA2a (Homo sapiens (Human), UniProt P29274). Put plainly: cAMP inhibition assay in hA2a/CHO cells. The assay is classed as cell-based. The settings on record: 10 μM adenosine, read-out: cAMP & FLIPR IC50 (nM) hA2a. As to the method: as §1
FLIPR™ and cAMP inhibition activities of exemplary compounds in different adenosine receptor over-expressing cell lines are shown in Table 4 below.

Chain of mA2a (Q60613 whole entry): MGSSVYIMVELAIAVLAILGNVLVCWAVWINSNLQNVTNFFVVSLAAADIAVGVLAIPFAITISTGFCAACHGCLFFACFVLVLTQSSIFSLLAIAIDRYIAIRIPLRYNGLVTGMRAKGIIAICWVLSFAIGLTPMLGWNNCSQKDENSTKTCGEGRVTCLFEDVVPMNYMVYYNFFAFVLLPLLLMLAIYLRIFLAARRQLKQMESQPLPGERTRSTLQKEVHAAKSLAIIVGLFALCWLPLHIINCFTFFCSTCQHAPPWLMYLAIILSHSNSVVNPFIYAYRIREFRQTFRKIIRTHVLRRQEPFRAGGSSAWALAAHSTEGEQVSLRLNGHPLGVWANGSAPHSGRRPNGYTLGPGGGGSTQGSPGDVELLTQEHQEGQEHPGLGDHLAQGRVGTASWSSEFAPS
Chain of hA2a (P29274 whole entry): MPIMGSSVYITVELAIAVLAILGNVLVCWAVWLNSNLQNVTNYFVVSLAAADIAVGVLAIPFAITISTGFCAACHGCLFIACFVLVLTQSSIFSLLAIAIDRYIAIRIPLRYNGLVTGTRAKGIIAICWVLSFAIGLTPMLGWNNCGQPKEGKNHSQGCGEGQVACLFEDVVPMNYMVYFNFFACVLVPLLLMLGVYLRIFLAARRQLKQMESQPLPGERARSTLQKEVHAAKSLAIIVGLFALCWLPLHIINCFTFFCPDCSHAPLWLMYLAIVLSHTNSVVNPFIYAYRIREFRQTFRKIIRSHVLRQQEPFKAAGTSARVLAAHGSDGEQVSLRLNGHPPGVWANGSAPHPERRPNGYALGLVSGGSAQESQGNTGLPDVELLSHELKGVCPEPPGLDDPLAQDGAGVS

`Cc1cnc2ccc(-c3c(-c4ccc(F)cc4)nc(N)n4nc(CC5CCOC5)nc34)cn12` (single isomer, unassigned; isomer 2) [Example 105-2, 7-(4-fluorophenyl)-8-(3-methylimidazo[1,2-a]pyridin-6-yl)-2-((tetrahydrofuran-3-yl)methyl)-[1,2,4]triazolo[1,5-c]pyrimidin-5-amine (isomer 2)]: the 50% inhibitory concentration (IC50) on mA2a came out at 1 nM; on hA2a, 0.1 nM.
